# Test results from patent publication US7378435B2, “Aryl-isoxazole-4-carbonyl-indole-carboxylic acid amide derivatives” (Hoffmann-La Roche Inc., priority 2005, dated 2008).
# Like-named read-outs stand apart in the source and are kept apart here.
# Biological target: T1, GABA A receptor α5β3γ2 (Homo sapiens, UniProt P18507+P31644)
# T1 construct: expressed in transfected cells; host or cells: HEK293 (transiently transfected for the human receptors)
# Assay: [3H]flumazenil competition binding, human GABA A α5β3γ2 receptors expressed in HEK293 cells
# Method: The affinity of compounds at GABA A receptor subtypes was measured by competition for [3H]flumazenil (85 Ci/mmol; Roche) binding to HEK293 cells expressing rat (stably transfected) or human (transiently transfected) receptors of composition α1β3γ2, α2β3γ2, α3β3γ2 and α5β3γ2.
# Cell pellets were suspended in Krebs-tris buffer (4.8 mM KCl, 1.2 mM CaCl2, 1.2 mM MgCl2, 120 mM NaCl, 15 mM Tris; pH 7.5; binding assay buffer), homogenized by polytron for ca. 20 sec on ice and centrifuged for 60 min at 4° C. (50000 g; Sorvall, rotor: SM24=20000 rpm). The cell pellets were resuspended in Krebs-tris buffer and homogenized by polytron for ca. 15 sec on ice. Protein was measured (Bradford method, Bio-Rad) and aliquots of 1 mL were prepared and stored at −80° C.
# Radioligand binding assays were carried out in a volume of […] (96-well plates) which contained […] of cell membranes, [3H]flumazenil at a concentration of 1 nM for α1, α2, α3 subunits and 0.5 nM for α5 subunits and the test compound in the range of […]. Nonspecific binding was defined by 10^−5 M diazepam and typically represented less than 5% of the total binding. Assays were incubated to equilibrium for 1 hour at 4° C. and harvested onto GF/C uni-filters (Packard) by filtration using a Packard harvester and washing with ice-cold wash buffer (50 mM Tris; pH 7.5). After drying, filter-retained radioactivity was detected by liquid scintillation counting. Ki values were calculated using Excel-Fit (Microsoft) and are the means of two determinations.
# [1] = Table 1, human α5, [3H]flumazenil, mean of two determinations, read-out: Ki h
# [2] = human α5β3γ2, 0.5 nM [3H]flumazenil, mean of two determinations, read-out: Ki[μM] hα5
SMILES,Ki [1] [µM],Ki [2] [µM],Ki [µM]
"C#CCN(C)C(=O)c1ccc2c(C(=O)c3c(-c4ccc(F)cc4)noc3C)c[nH]c2c1 [Example 19, 3-[3-(4-Fluoro-phenyl)-5-methyl-isoxazole-4-carbonyl]-1H-indole-6-carboxylicacid methyl-prop-2-ynyl-amide]",0.0606,,
"Cc1onc(-c2cccc(F)c2)c1C(=O)c1c[nH]c2cc(C(=O)NCc3ccccn3)ccc12 [Example 27, 3-[3-(3-Fluoro-phenyl)-5-methyl-isoxazole-4-carbonyl]-1H-indole-6-carboxylicacid (pyridin-2-ylmethyl)-amide]",0.0394,,
"Cc1onc(-c2cccc(F)c2)c1C(=O)c1c[nH]c2cc(C(=O)NCc3ccco3)ccc12 [Example 29, 3-[3-(3-Fluoro-phenyl)-5-methyl-isoxazole-4-carbonyl]-1H-indole-6-carboxylicacid (furan-2-ylmethyl)-amide]",0.0621,,
"Cc1onc(-c2cccc(F)c2)c1C(=O)c1c[nH]c2cc(C(=O)NCC3CC3)ccc12 [Example 30, 3-[3-(3-Fluoro-phenyl)-5-methyl-isoxazole-4-carbonyl]-1H-indole-6-carboxylicacidcyclopropylmethyl-amide]",0.0537,,
"C#CCNC(=O)c1ccc2c(C(=O)c3c(-c4cccc(F)c4)noc3C)c[nH]c2c1 [Example 31, 3-[3-(3-Fluoro-phenyl)-5-methyl-isoxazole-4-carbonyl]-1H-indole-6-carboxylicacid prop-2-ynylamide]",0.0319,,
"Cc1onc(-c2cccc(F)c2)c1C(=O)c1c[nH]c2cc(C(=O)NC3CCOCC3)ccc12 [Example 32, 3-[3-(3-Fluoro-phenyl)-5-methyl-isoxazole-4-carbonyl]-1H-indole-6-carboxylicacid (tetrahydro-pyran-4-yl)-amide]",0.0418,,
"Cc1onc(-c2cccc(F)c2)c1C(=O)c1c[nH]c2cc(C(=O)NC3CCCC3)ccc12 [Example 33, 3-[3-(3-Fluoro-phenyl)-5-methyl-isoxazole-4-carbonyl]-1H-indole-6-carboxylicacidcyclopentylamide]",0.0953,,
"Cc1onc(-c2cccc(F)c2)c1C(=O)c1c[nH]c2cc(C(=O)NC3CCC3)ccc12 [Example 34, 3-[3-(3-Fluoro-phenyl)-5-methyl-isoxazole-4-carbonyl]-1H-indole-6-carboxylicacidcyclobutylamide]",0.059,,
"Cc1onc(-c2cccc(F)c2)c1C(=O)c1c[nH]c2cc(C(=O)NC3CC3)ccc12 [Example 35, 3-[3-(3-Fluoro-phenyl)-5-methyl-isoxazole-4-carbonyl]-1H-indole-6-carboxylicacidcyclopropylamide]",0.038,,
"CC(C)c1onc(-c2cccc(F)c2)c1C(=O)c1c[nH]c2cc(C(=O)NCc3ccco3)ccc12 [Example 36, 3-[3-(3-Fluoro-phenyl)-5-isopropyl-isoxazole-4-carbonyl]-1H-indole-6-carboxylicacid (furan-2-ylmethyl)-amide]",0.0454,,
"CC(C)c1onc(-c2cccc(F)c2)c1C(=O)c1c[nH]c2cc(C(=O)NCC3CC3)ccc12 [Example 37, 3-[3-(3-Fluoro-phenyl)-5-isopropyl-isoxazole-4-carbonyl]-1H-indole-6-carboxylicacidcyclopropylmethyl-amide]",0.0393,,
"C#CCNC(=O)c1ccc2c(C(=O)c3c(-c4cccc(F)c4)noc3C(C)C)c[nH]c2c1 [Example 38, 3-[3-(3-Fluoro-phenyl)-5-isopropyl-isoxazole-4-carbonyl]-1H-indole-6-carboxylicacid prop-2-ynylamide]",0.0315,,
"CC(C)c1onc(-c2cccc(F)c2)c1C(=O)c1c[nH]c2cc(C(=O)NC3CCOCC3)ccc12 [Example 39, 3-[3-(3-Fluoro-phenyl)-5-isopropyl-isoxazole-4-carbonyl]-1H-indole-6-carboxylicacid (tetrahydro-pyran-4-yl)-amide]",0.0386,,
"CC(C)c1onc(-c2cccc(F)c2)c1C(=O)c1c[nH]c2cc(C(=O)NC3CCCC3)ccc12 [Example 40, 3-[3-(3-Fluoro-phenyl)-5-isopropyl-isoxazole-4-carbonyl]-1H-indole-6-carboxylicacidcyclopentylamide]",0.0447,,
"Cc1onc(-c2cccc(F)c2)c1C(=O)c1cn(C)c2cc(C(=O)NCCN3CCOCC3)ccc12 [Example 41, 3-[3-(3-Fluoro-phenyl)-5-methyl-isoxazole-4-carbonyl]-1-methyl-1H-indole-6-carboxylic acid(2-morpholin-4-yl-ethyl)-amide]",,,0.0249
"Cc1onc(-c2cccc(F)c2)c1C(=O)c1cn(C)c2cc(C(=O)NCc3ccco3)ccc12 [Example 42, 3-[3-(3-Fluoro-phenyl)-5-methyl-isoxazole-4-carbonyl]-1-methyl-1H-indole-6-carboxylic acid(furan-2-ylmethyl)-amide]",,,0.0769

# Second part, led by results:
Ki [1] [µM],Ki [2] [µM],SMILES,Ki [µM]
0.00455,0.00455,"Cc1onc(-c2ccc(F)cc2)c1C(=O)c1c[nH]c2cc(C(=O)NCCN3CCOCC3)ccc12 [Example 14, 3-[3-(4-Fluoro-phenyl)-5-methyl-isoxazole-4-carbonyl]-1H-indole-6-carboxylicacid (2-morpholin-4-yl-ethyl)-amide]",
0.00485,0.00484,"Cc1onc(-c2ccc(F)cc2)c1C(=O)c1c[nH]c2cc(C(=O)NCc3ccco3)ccc12 [Example 15, 3-[3-(4-Fluoro-phenyl)-5-methyl-isoxazole-4-carbonyl]-1H-indole-6-carboxylicacid (furan-2-ylmethyl)-amide]",
0.00365,0.00365,"Cc1onc(-c2ccc(F)cc2)c1C(=O)c1c[nH]c2cc(C(=O)NCc3ccncc3)ccc12 [Example 16, 3-[3-(4-Fluoro-phenyl)-5-methyl-isoxazole-4-carbonyl]-1H-indole-6-carboxylicacid (pyridin-4-ylmethyl)-amide]",
0.0043,0.0043,"Cc1onc(-c2ccc(F)cc2)c1C(=O)c1c[nH]c2cc(C(=O)NCCCN3CCOCC3)ccc12 [Example 17, 3-[3-(4-Fluoro-phenyl)-5-methyl-isoxazole-4-carbonyl]-1H-indole-6-carboxylicacid (3-morpholin-4-yl-propyl)-amide]",
0.00185,0.00185,"Cc1onc(-c2ccc(F)cc2)c1C(=O)c1c[nH]c2cc(C(=O)NCCO)ccc12 [Example 18, 3-[3-(4-Fluoro-phenyl)-5-methyl-isoxazole-4-carbonyl]-1H-indole-6-carboxylicacid (2-hydroxy-ethyl)-amide]",
0.00325,0.00325,"C#CCNC(=O)c1ccc2c(C(=O)c3c(-c4ccc(F)cc4)noc3C)c[nH]c2c1 [Example 20, 3-[3-(4-Fluoro-phenyl)-5-methyl-isoxazole-4-carbonyl]-1H-indole-6-carboxylicacid prop-2-ynylamide]",
0.005,0.005,"Cc1onc(-c2ccc(F)cc2)c1C(=O)c1c[nH]c2cc(C(=O)NC3CCOCC3)ccc12 [Example 21, 3-[3-(4-Fluoro-phenyl)-5-methyl-isoxazole-4-carbonyl]-1H-indole-6-carboxylicacid (tetrahydro-pyran-4-yl)-amide]",
0.00975,0.00975,"Cc1onc(-c2ccc(F)cc2)c1C(=O)c1c[nH]c2cc(C(=O)NC3CCCC3)ccc12 [Example 22, 3-[3-(4-Fluoro-phenyl)-5-methyl-isoxazole-4-carbonyl]-1H-indole-6-carboxylicacidcyclopentylamide]",
0.00305,0.00305,"Cc1onc(-c2ccc(F)cc2)c1C(=O)c1c[nH]c2cc(C(=O)NC3CC3)ccc12 [Example 23, 3-[3-(4-Fluoro-phenyl)-5-methyl-isoxazole-4-carbonyl]-1H-indole-6-carboxylicacidcyclopropylamide]",
0.00225,0.00225,"Cc1onc(-c2ccc(F)cc2)c1C(=O)c1c[nH]c2cc(C(=O)NCc3cccnc3)ccc12 [Example 24, 3-[3-(4-Fluoro-phenyl)-5-methyl-isoxazole-4-carbonyl]-1H-indole-6-carboxylicacid (pyridin-3-ylmethyl)-amide]",
0.00675,0.00675,"Cc1onc(-c2ccc(F)cc2)c1C(=O)c1c[nH]c2cc(C(=O)NC3CCC3)ccc12 [Example 25, 3-[3-(4-Fluoro-phenyl)-5-methyl-isoxazole-4-carbonyl]-1H-indole-6-carboxylicacidcyclobutylamide]",
0.0235,,"Cc1onc(-c2cccc(F)c2)c1C(=O)c1c[nH]c2cc(C(=O)NCCc3cnc[nH]3)ccc12 [Example 26, 3-[3-(3-Fluoro-phenyl)-5-methyl-isoxazole-4-carbonyl]-1H-indole-6-carboxylicacid [2-(1H-imidazol-4-yl)-ethyl]-amide]",
0.0227,,"Cc1onc(-c2cccc(F)c2)c1C(=O)c1c[nH]c2cc(C(=O)NCCN3CCOCC3)ccc12 [Example 28, 3-[3-(3-Fluoro-phenyl)-5-methyl-isoxazole-4-carbonyl]-1H-indole-6-carboxylicacid (2-morpholin-4-yl-ethyl)-amide]",
